{"source": "the supplement of paper PMC10307832", "assay_in_all_cases": "relative viability (nuclei count vs DMSO), 5 days (fraction); higher = more cells survive", "key": {"NCI-H358": {"system": "NCI-H358", "how_it_was_run": "(§1)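 Each reported value is a median over duplicate plates. It expresses relative viability: treated-well nuclei count divided by vehicle-well nuclei count. Lung cancer cell lines in 1536-well plates were dosed by pin tool a day after seeding, alone with one drug or with a fixed anchor-drug dose plus five library-drug doses (not always all listed) in √10 steps, and nuclei were counted after 5 days.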"}, "HARA": {"system": "HARA", "how_it_was_run": "as §1"}, "LC-2-ad": {"system": "LC-2-ad", "how_it_was_run": "as §1"}, "NCI-H23": {"system": "NCI-H23", "how_it_was_run": "as §1"}, "HOP-62": {"system": "HOP-62", "how_it_was_run": "as §1"}, "NCI-H1395": {"system": "NCI-H1395", "how_it_was_run": "as §1"}, "COR-L23": {"system": "COR-L23", "how_it_was_run": "as §1"}, "ABC-1": {"system": "ABC-1", "how_it_was_run": "as §1"}, "NCI-H2405": {"system": "NCI-H2405", "how_it_was_run": "as §1"}, "EMC-BAC-2": {"system": "EMC-BAC-2", "how_it_was_run": "as §1"}, "HCC-15": {"system": "HCC-15", "how_it_was_run": "as §1"}}, "data": [{"compound": "Nc1ccn([C@@H]2O[C@H](CO)[C@@H](O)[C@@H]2O)c(=O)n1", "note": "[Cytarabine] + Nc1ncn([C@H]2C[C@H](O)[C@@H](CO)O2)c(=O)n1 [Decitabine] (partner 2 µM)", "values": [{"measurement": "relative viability", "setting": "NCI-H358; first compound 0.05 µM", "result": 0.226}, {"measurement": "relative viability", "setting": "NCI-H358; first compound 0.1581 µM", "result": 0.133}, {"measurement": "relative viability", "setting": "NCI-H358; first compound 0.5 µM", "result": 0.107}, {"measurement": "relative viability", "setting": "HARA; first compound 0.005 µM", "result": 0.448}, {"measurement": "relative viability", "setting": "HARA; first compound 0.01581 µM", "result": 0.236}, {"measurement": "relative viability", "setting": "HARA; first compound 0.05 µM", "result": 0.347}, {"measurement": "relative viability", "setting": "HARA; first compound 0.1581 µM", "result": 0.173}, {"measurement": "relative viability", "setting": "HARA; first compound 0.5 µM", "result": 0.18}, {"measurement": "relative viability", "setting": "LC-2-ad; first compound 0.005 µM", "result": 0.727}, {"measurement": "relative viability", "setting": "LC-2-ad; first compound 0.01581 µM", "result": 0.682}, {"measurement": "relative viability", "setting": "LC-2-ad; first compound 0.05 µM", "result": 0.759}, {"measurement": "relative viability", "setting": "LC-2-ad; first compound 0.1581 µM", "result": 0.69}, {"measurement": "relative viability", "setting": "LC-2-ad; first compound 0.5 µM", "result": 0.499}, {"measurement": "relative viability", "setting": "NCI-H23; first compound 0.005 µM", "result": 0.296}, {"measurement": "relative viability", "setting": "NCI-H23; first compound 0.01581 µM", "result": 0.267}, {"measurement": "relative viability", "setting": "NCI-H23; first compound 0.05 µM", "result": 0.274}, {"measurement": "relative viability", "setting": "NCI-H23; first compound 0.1581 µM", "result": 0.195}, {"measurement": "relative viability", "setting": "NCI-H23; first compound 0.5 µM", "result": 0.193}, {"measurement": "relative viability", "setting": "HOP-62; first compound 0.005 µM", "result": 0.222}, {"measurement": "relative viability", "setting": "HOP-62; first compound 0.01581 µM", "result": 0.189}, {"measurement": "relative viability", "setting": "HOP-62; first compound 0.05 µM", "result": 0.179}, {"measurement": "relative viability", "setting": "HOP-62; first compound 0.1581 µM", "result": 0.162}, {"measurement": "relative viability", "setting": "HOP-62; first compound 0.5 µM", "result": 0.126}, {"measurement": "relative viability", "setting": "NCI-H1395; first compound 0.005 µM", "result": 0.634}, {"measurement": "relative viability", "setting": "NCI-H1395; first compound 0.01581 µM", "result": 0.688}, {"measurement": "relative viability", "setting": "NCI-H1395; first compound 0.05 µM", "result": 0.529}, {"measurement": "relative viability", "setting": "NCI-H1395; first compound 0.1581 µM", "result": 0.368}, {"measurement": "relative viability", "setting": "NCI-H1395; first compound 0.5 µM", "result": 0.364}, {"measurement": "relative viability", "setting": "COR-L23; first compound 0.005 µM", "result": 0.43}, {"measurement": "relative viability", "setting": "COR-L23; first compound 0.01581 µM", "result": 0.377}, {"measurement": "relative viability", "setting": "COR-L23; first compound 0.05 µM", "result": 0.341}, {"measurement": "relative viability", "setting": "COR-L23; first compound 0.1581 µM", "result": 0.205}, {"measurement": "relative viability", "setting": "COR-L23; first compound 0.5 µM", "result": 0.156}, {"measurement": "relative viability", "setting": "ABC-1; first compound 0.005 µM", "result": 1.13}, {"measurement": "relative viability", "setting": "ABC-1; first compound 0.01581 µM", "result": 1.02}, {"measurement": "relative viability", "setting": "ABC-1; first compound 0.05 µM", "result": 0.925}, {"measurement": "relative viability", "setting": "ABC-1; first compound 0.1581 µM", "result": 0.786}, {"measurement": "relative viability", "setting": "ABC-1; first compound 0.5 µM", "result": 0.611}, {"measurement": "relative viability", "setting": "NCI-H2405; first compound 0.005 µM", "result": 0.666}, {"measurement": "relative viability", "setting": "NCI-H2405; first compound 0.01581 µM", "result": 0.569}, {"measurement": "relative viability", "setting": "NCI-H2405; first compound 0.05 µM", "result": 0.503}, {"measurement": "relative viability", "setting": "NCI-H2405; first compound 0.1581 µM", "result": 0.342}, {"measurement": "relative viability", "setting": "NCI-H2405; first compound 0.5 µM", "result": 0.321}, {"measurement": "relative viability", "setting": "EMC-BAC-2; first compound 0.005 µM", "result": 0.943}, {"measurement": "relative viability", "setting": "EMC-BAC-2; first compound 0.01581 µM", "result": 0.836}, {"measurement": "relative viability", "setting": "EMC-BAC-2; first compound 0.05 µM", "result": 0.597}, {"measurement": "relative viability", "setting": "EMC-BAC-2; first compound 0.1581 µM", "result": 0.315}, {"measurement": "relative viability", "setting": "EMC-BAC-2; first compound 0.5 µM", "result": 0.332}, {"measurement": "relative viability", "setting": "HCC-15; first compound 0.005 µM", "result": 0.511}, {"measurement": "relative viability", "setting": "HCC-15; first compound 0.01581 µM", "result": 0.528}, {"measurement": "relative viability", "setting": "HCC-15; first compound 0.05 µM", "result": 0.594}, {"measurement": "relative viability", "setting": "HCC-15; first compound 0.1581 µM", "result": 0.462}, {"measurement": "relative viability", "setting": "HCC-15; first compound 0.5 µM", "result": 0.464}]}]}
